Measurements reported in patent US20250011316A1, “PEROXIREDOXIN 3 INHIBITORS AND METHODS OF USE FOR TREATING CANCER” (Wake Forest University Health Sciences, priority 2022, published 2025).
Values after ≈ are worked out from the molar mass of the structure shown.

What was measured:
[1] = test system: human SK—OV-3 ovarian cancer cells; assay: Cellular Activity Assay (cytotoxicity, crystal violet); type: cell-based; details: SK—OV-3 cells, treated for 48 hr, 0.1-100 μM, crystal violet absorbance at 540 nm
Summary of the method: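 SK-OV-3 cells plated, allowed 24 h recovery, then treated 48 hr with compound at 0.1-100 μM. Live cells were fixed (3.0% formaldehyde), stained with 0.1% crystal violet and read at 540 nm. EC50 was fitted after normalizing to matched-DMSO controls.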

[2] = biological target: T1, purified human PRX3 (Homo sapiens, UniProt P30048); assay: Biochemical PRX3 Inhibition Assay (non-reducible crosslink by SDS PAGE + single adduct by MALDI-TOF MS); details: 100 μM PRX3 with TRX2/thioredoxin reductase/NADPH system and hydrogen peroxide, 1-2 hr at 37° C.
T1 construct: made in house
T1 sequence (P30048 62-256): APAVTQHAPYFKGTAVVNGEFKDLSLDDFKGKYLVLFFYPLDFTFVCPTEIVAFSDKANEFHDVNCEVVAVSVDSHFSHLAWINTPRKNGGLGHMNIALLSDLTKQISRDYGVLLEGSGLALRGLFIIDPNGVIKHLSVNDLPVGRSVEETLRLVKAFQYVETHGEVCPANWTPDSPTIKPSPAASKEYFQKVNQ
Summary of the method: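 Purified human PRX3 (100 µM) cycled with TRX2, thioredoxin reductase, NADPH regenerating system and H2O2, incubated with compound 1–2 h at 37 °C. Non-reducible crosslink quantified by densitometry of SDS-PAGE (~46 vs ~23 kDa) after DTT; single-adduct fraction from MALDI-TOF MS peak intensities, background-corrected against DMSO.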

[3] = Solubility Assay (HPLC); type: physicochemical; details: HEPES/NaCl buffer, aqueous with cosolvent or surfactant or cyclodextrin, kinetic from dmso stock; 20 mM HEPES, 100 mM NaCl, pH 7.5, 18-24 hours at ambient temperature; read-out: Solubility
Summary of the method: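 Compound from 20 mM DMSO stock added to 20 mM HEPES, 100 mM NaCl, pH 7.5, rotated 18-24 h at ambient temperature, then centrifuged 10 min at 20,000×g to remove solids. Supernatant diluted in DMSO and quantified by HPLC peak area against the closest of 200 μM and 20 μM standards, corrected for dilution.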

[4] = test system: Enterococcus hirae (ATCC #10541); assay: Antimicrobial Activity Assay (MIC / growth inhibition); type: cell-based; details: ATCC10541; Enterococcus hirae; analogs tested at 20 μM final concentration
Procedure: The overnight growth was then diluted into growth media to make a single solution of E. hirae with a final optical density at 600 nm=0.02 AU. A 20 mM stock solution of Thiostrepton in DMSO was made and used to make multiple dilutions of TS in DMSO. Each TS dilution (0.1 mL) was then added to a test tube containing 10 mL of the diluted E. hirae and grown at 37° C. overnight while shaking at 180 rpm. The next morning, each tube was visually inspected to determine if the cells grew. Final concentrations tested were 0.120, 0.090, 0.075, 0.060, 0.045, 0.030, and 0.015 μM TS. […] Three replicates were made on three separate days (n=9). […] For TS analogs, the dilute E. hirae was treated with 20 μM final concentration of each analog (three replicates each). […] DMSO was used as a positive control (complete cell growth) and 20 μM thiostrepton was used as a negative control.

Row | SMILES | EC50 ([1]; Homo sapiens) | PRX3 Inhibition (Crosslink + Mono-adduct) [2] | solubility [3] | MIC [4] | EC50 ([1]; Homo sapiens, SK-OV-3, 48 h) | EC50 [1]
1 | C=C(NC(=O)c1csc(N2CCC(NC(=O)OC(C)(C)C)CC2)n1)C(=O)NC(=C)C(=O)OC [Compound 12, Methyl 2-(2-(2-(4-((tert-butoxycarbonyl)amino)piperidin-1-yl)thiazole-4-carboxamido)acrylamido)acrylate] | 1 to 10 µM | +++ (>90%) | < 100 µM | > 20 µM | – | –
2 | C=C(NC(=O)c1csc(N2CCC(NC(=O)CCCCCNC(=O)OC(C)(C)C)CC2)n1)C(=O)NC(=C)C(=O)OC [Compound 13, Methyl 2-(2-(2-(4-(6-((tert-butoxycarbonyl)amino)hexanamido)piperidin-1-yl)thiazole-4-carboxamido)acrylamido)acrylate] | – | +++ (>90%) | 100 to 1000 µM (≈ 59.3 to 593 µg/mL) | > 20 µM | 1 to 10 µM | –
3 | C=C(NC(=O)c1csc(-c2cccc(C(=O)OC(C)(C)C)c2)n1)C(=O)NC(=C)C(=O)OC [Compound 14, Tert-butyl 3-(4-((3-((3-methoxy-3-oxoprop-1-en-2-yl)amino)-3-oxoprop-1-en-2-yl)carbamoyl)thiazol-2-yl)benzoate] | 25 to 100 µM | +++ (>90%) | < 100 µM | > 20 µM | – | –
4 | C=C(NC(=O)c1csc(N2CCC(C(=O)NCCNC(=O)OC(C)(C)C)CC2)n1)C(=O)NC(=C)C(=O)OC [Compound 15, Methyl 2-(2-(2-(4-((2-((tert-butoxycarbonyl)amino)ethyl)carbamoyl)piperidin-1-yl)thiazole-4-carboxamido)acrylamido)acrylate] | 1 to 10 µM | +++ (>90%) | < 100 µM | > 20 µM | – | –
5 | C=C(NC(=O)c1csc(-c2ccc(CNC(=O)CCCCCNC(=O)OC(C)(C)C)cc2)n1)C(=O)NC(=C)C(=O)OC [Compound 16, Methyl 2-(2-(2-(4-((6-((tert-butoxycarbonyl)amino)hexanamido)methyl)phenyl)thiazole-4-carboxamido)acrylamido)acrylate] | – | +++ (>90%) | < 100 µM | > 20 µM | – | 10 to 25 µM
6 | C=C(NC(=O)c1csc(N2CCOCC2)n1)C(=O)NC(=C)C(=O)OC [Compound 17, Methyl 2-(2-(2-morpholinothiazole-4-carboxamido)acrylamido)acrylate] | 10 to 25 µM | +++ (>90%) | 100 to 1000 µM (≈ 36.6 to 366 µg/mL) | > 20 µM | – | –
7 | C=C(NC(=O)c1csc(N2CCN(C(=O)OC(C)(C)C)CC2)n1)C(=O)NC(=C)C(=O)OC [Compound 18, Tert-butyl 4-(4-((3-((3-methoxy-3-oxoprop-1-en-2-yl)amino)-3-oxoprop-1-en-2-yl)carbamoyl)thiazol-2-yl)piperazine-1-carboxylate] | 25 to 100 µM | + (5-50%) | 100 to 1000 µM (≈ 46.6 to 466 µg/mL) | > 20 µM | – | –
8 | C=C(NC(=O)c1csc(N2CCC(NC(=O)CCCCCN=[N+]=[N-])CC2)n1)C(=O)NC(=C)C(=O)OC [Compound 19, Methyl 2-(2-(2-(4-(6-azidohexanamido)piperidin-1-yl)thiazole-4-carboxamido)acrylamido)acrylate] | 1 to 10 µM | +++ (>90%) | < 100 µM | > 20 µM | – | –
9 | C=C(NC(=O)c1csc(N2CCC[C@H](NC(=O)OC(C)(C)C)C2)n1)C(=O)NC(=C)C(=O)OC [Compound 20, Methyl (S)-2-(2-(2-(3-((tert-butoxycarbonyl)amino)piperidin-1-yl)thiazole-4-carboxamido)acrylamido)acrylate] | 1 to 10 µM | +++ (>90%) | < 100 µM | > 20 µM | – | –
10 | C=C(NC(=O)c1csc(N2CCC(N(C)C(=O)OCC)CC2)n1)C(=O)NC(=C)C(=O)OC [Compound 21, Methyl 2-(2-(2-(4-((ethoxycarbonyl)(methyl)amino)piperidin-1-yl)thiazole-4-carboxamido)acrylamido)acrylate] | 1 to 10 µM | +++ (>90%) | < 100 µM | > 20 µM | – | –
